The source made the active and inactive calls.
Assays:
[1] = Binding affinity to AGGCAGACA oligonucleotide DNA sequence (unknown origin) at 50 nM incubated for 16 hrs by PCR based Bind-n-Seq analysis
[2] = Binding affinity to TGGTAGACA oligonucleotide DNA sequence (unknown origin) at 50 nM incubated for 16 hrs by PCR based Bind-n-Seq analysis
[3] = Binding affinity to CGGCTAACA oligonucleotide DNA sequence (unknown origin) at 50 nM incubated for 16 hrs by PCR based Bind-n-Seq analysis
[4] = Binding affinity to AGGCTGATA oligonucleotide DNA sequence (unknown origin) at 50 nM incubated for 16 hrs by PCR based Bind-n-Seq analysis
[5] = Binding affinity to ATGCAGTCA oligonucleotide DNA sequence (unknown origin) at 50 nM incubated for 16 hrs by PCR based Bind-n-Seq analysis
[6] = Binding affinity to ATGCAGACA oligonucleotide DNA sequence (unknown origin) at 50 nM incubated for 16 hrs by PCR based Bind-n-Seq analysis
[7] = Binding affinity to AGACAGTCA oligonucleotide DNA sequence (unknown origin) at 50 nM incubated for 16 hrs by PCR based Bind-n-Seq analysis
[8] = Binding affinity to AGACTGACA oligonucleotide DNA sequence (unknown origin) at 50 nM incubated for 16 hrs by PCR based Bind-n-Seq analysis
[9] = Binding affinity to AGGCTTACA oligonucleotide DNA sequence (unknown origin) at 50 nM incubated for 16 hrs by PCR based Bind-n-Seq analysis
[10] = Binding affinity to TGGCTAACA oligonucleotide DNA sequence (unknown origin) at 50 nM incubated for 16 hrs by PCR based Bind-n-Seq analysis
[11] = Binding affinity to GGGCAGAAA oligonucleotide DNA sequence (unknown origin) at 50 nM incubated for 16 hrs by PCR based Bind-n-Seq analysis
[12] = Binding affinity to AGAAAGGCG oligonucleotide DNA sequence (unknown origin) at 50 nM incubated for 16 hrs by PCR based Bind-n-Seq analysis
[13] = Binding affinity to TATGGCTCA oligonucleotide DNA sequence (unknown origin) at 50 nM incubated for 16 hrs by PCR based Bind-n-Seq analysis
[14] = Binding affinity to AAAGGCCGA oligonucleotide DNA sequence (unknown origin) at 50 nM incubated for 16 hrs by PCR based Bind-n-Seq analysis
[15] = Binding affinity to AAAGAAGGC oligonucleotide DNA sequence (unknown origin) at 50 nM incubated for 16 hrs by PCR based Bind-n-Seq analysis
[16] = Binding affinity to ATCGGCAAA oligonucleotide DNA sequence (unknown origin) at 50 nM incubated for 16 hrs by PCR based Bind-n-Seq analysis
[17] = Binding affinity to CCTTTCGGC oligonucleotide DNA sequence (unknown origin) at 50 nM incubated for 16 hrs by PCR based Bind-n-Seq analysis
[18] = Binding affinity to AGGCGAAAT oligonucleotide DNA sequence (unknown origin) at 50 nM incubated for 16 hrs by PCR based Bind-n-Seq analysis
[19] = Binding affinity to AAAGGAATC oligonucleotide DNA sequence (unknown origin) at 50 nM incubated for 16 hrs by PCR based Bind-n-Seq analysis
[20] = Binding affinity to AAAGGGTAA oligonucleotide DNA sequence (unknown origin) at 50 nM incubated for 16 hrs by PCR based Bind-n-Seq analysis
[21] = Binding affinity to TAGTCAGCC oligonucleotide DNA sequence (unknown origin) at 50 nM incubated for 16 hrs by PCR based Bind-n-Seq analysis
[22] = Binding affinity to TGTCAGCGA oligonucleotide DNA sequence (unknown origin) at 50 nM incubated for 16 hrs by PCR based Bind-n-Seq analysis
[23] = Binding affinity to GTGTCAGCC oligonucleotide DNA sequence (unknown origin) at 50 nM incubated for 16 hrs by PCR based Bind-n-Seq analysis
[24] = Binding affinity to TGGCAGACT oligonucleotide DNA sequence (unknown origin) at 50 nM incubated for 16 hrs by PCR based Bind-n-Seq analysis
[25] = Binding affinity to AGTCAGCCT oligonucleotide DNA sequence (unknown origin) at 50 nM incubated for 16 hrs by PCR based Bind-n-Seq analysis
[26] = Binding affinity to TGTCAGCCT oligonucleotide DNA sequence (unknown origin) at 50 nM incubated for 16 hrs by PCR based Bind-n-Seq analysis
[27] = Binding affinity to GGCTGACTG oligonucleotide DNA sequence (unknown origin) at 50 nM incubated for 16 hrs by PCR based Bind-n-Seq analysis
[28] = Binding affinity to ATGTCTGCC oligonucleotide DNA sequence (unknown origin) at 50 nM incubated for 16 hrs by PCR based Bind-n-Seq analysis
[29] = Binding affinity to TGGCAGACA oligonucleotide DNA sequence (unknown origin) at 50 nM incubated for 16 hrs by PCR based Bind-n-Seq analysis
[30] = Binding affinity to GGTTGACAT oligonucleotide DNA sequence (unknown origin) at 50 nM incubated for 16 hrs by PCR based Bind-n-Seq analysis

Measured: Activity

CC(=O)Nc1cn(C)c(C(=O)Nc2cn(C)c(C(=O)Nc3cc(C(=O)NCCC(=O)Nc4cn(C)c(C(=O)Nc5cc(C(=O)Nc6cc(C(=O)NCCCC(=O)Nc7cn(C)c(C(=O)Nc8cc(C(=O)Nc9cc(C(=O)NCCC(=O)Nc%10cn(C)c(C(=O)Nc%11cc(C(=O)Nc%12cc(C(=O)NCCC(=O)NCCCN(C)CCCNC(=O)CCOCCOCCOCCOCCOCCOCCOCCOCCOCCOCCOCCOCCNC(=O)CCCC[C@@H]%13SC[C@@H]%14NC(=O)N[C@@H]%14%13)n(C)c%12)n(C)c%11)n%10)n(C)c9)n(C)c8)n7)n(C)c6)n(C)c5)n4)n(C)c3)n2)n1
active: [1] | [2] | [3] | [4] | [5] | [6] | [7] | [8] | [9] | [10]

CC(=O)Nc1cn(C)c(C(=O)Nc2cn(C)c(C(=O)Nc3cc(C(=O)NCCC(=O)Nc4cn(C)c(C(=O)Nc5cc(C(=O)Nc6cc(C(=O)NCCCC(=O)Nc7cn(C)c(C(=O)Nc8cc(C(=O)NCCOCCOCC(=O)Nc9cn(C)c(C(=O)Nc%10cc(C(=O)Nc%11cc(C(=O)NCCC(=O)NCCCN(C)CCCNC(=O)CCOCCOCCOCCOCCOCCOCCOCCOCCOCCOCCOCCOCCNC(=O)CCCC[C@@H]%12SC[C@@H]%13NC(=O)N[C@@H]%13%12)n(C)c%11)n(C)c%10)n9)n(C)c8)n7)n(C)c6)n(C)c5)n4)n(C)c3)n2)n1
active: [11] | [12] | [13] | [14] | [15] | [16] | [17] | [18] | [19] | [20]

CC(=O)Nc1cn(C)c(C(=O)Nc2cn(C)c(C(=O)NCCOCCOCC(=O)Nc3cn(C)c(C(=O)Nc4cc(C(=O)Nc5cc(C(=O)NCCCC(=O)Nc6cn(C)c(C(=O)Nc7cc(C(=O)Nc8cc(C(=O)NCCC(=O)Nc9cn(C)c(C(=O)Nc%10cc(C(=O)Nc%11cc(C(=O)NCCC(=O)NCCCN(C)CCCNC(=O)CCOCCOCCOCCOCCOCCOCCOCCOCCOCCOCCOCCOCCNC(=O)CCCC[C@@H]%12SC[C@@H]%13NC(=O)N[C@@H]%13%12)n(C)c%11)n(C)c%10)n9)n(C)c8)n(C)c7)n6)n(C)c5)n(C)c4)n3)n2)n1
active: [21] | [22] | [23] | [24] | [25] | [26] | [27] | [28] | [29] | [30]

— ChEMBL document CHEMBL3817807, “Sequence-specific DNA binding by long hairpin pyrrole-imidazole polyamides containing an 8-amino-3,6-dioxaoctanoic acid unit” (Bioorg Med Chem, 2016)
